According to patent US20230416329A1, “A PEPTIDE WITH DISULFIDE BONDS AND INHIBITORY ACTIVITY AGAINST SERINE PROTEASES, DERIVED HYBRID PEPTIDES THEREOF, AND USES THEREOF” (INSTITUTE OF MATERIA MEDICA , CHINESE ACADEMY OF MEDICAL …, priority 2020, published 2023):
Where two headings read alike, the source gives them in different places. Bridge positions count the residues as written; N and C are the ends. Square brackets hold non-standard residues; d marks the D form. Peptide text beside a SMILES is read from it. Hyp = O=C(O)[C@@H]1C[C@@H](O)CN1

Target: porcine pancreatic elastase (Sus scrofa, UniProt P00772)
Sequence (P00772 27-266): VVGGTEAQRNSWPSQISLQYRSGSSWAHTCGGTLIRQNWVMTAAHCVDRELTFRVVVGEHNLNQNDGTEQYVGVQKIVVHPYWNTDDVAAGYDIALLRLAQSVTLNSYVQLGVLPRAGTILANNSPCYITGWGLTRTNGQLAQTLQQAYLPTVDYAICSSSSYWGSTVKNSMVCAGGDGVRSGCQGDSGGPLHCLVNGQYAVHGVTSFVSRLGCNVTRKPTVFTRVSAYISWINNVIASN
Assay: Elastase inhibitory activity of peptides (AAApNA hydrolysis; IC50, Ki, residual activity)
Assay type: biochemical
Conditions: for Residual activity of elastase / IC50: elastase 0.5 μM, AAApNA 1 mM
Experimental: The inhibition constants of various synthetic active peptide inhibitors (molecular scaffolds) against seine proteases were measured. The substrates N-succinyl-Ala-Ala-Pro-Phe-p-nitroaniline (AAPFpNA), Nα—Benzoyl-L-arginine-4-nitroaniline hydrochloride (BApNA) and N-succinyl-[…] (AAApNA) are used in competitive binding reaction to determine the inhibitory activities against α-chymotrypsin, bovine trypsin, and porcine pancreatic elastase, respectively. Experiments for α-chymotrypsin and bovine trypsin inhibition were measured in 20 mM CaCl2, 50 mM Tris-HCl buffer (pH 7.8), and that for porcine elastase inhibition was measured in 50 mM Tris-HCl buffer (pH 8.0). The concentration of the peptide was measured using optical density (OD) at 280 nm. The Michaelis constant (Km) of the enzyme hydrolysis substrate is calculated from the initial rate of substrate hydrolysis at 405 nm. The absorbance value of the substrate was measured at 405 nm after complete hydrolysis. All data were processed using nonlinear regression.
• (1) Added a total 198 μL of reaction buffer (20 mM CaCl2, 50 mM Tris-HCl (pH 8.0)) into the 96 well plate, followed by preheating at 37° C. for 15 min. Then added 2 μL of different concentrations of substrates (pNA, dissolved in DMSO), and mixed by centrifugation at 500 rpm for 1 min. Finally, the plate was incubated at 37° C. for 30 min, and the absorbance value at 405 nm was measured. In the 200 μL of reaction system, the final concentrations of pNA were 0, 0.025, 0.05, 0.075, 0.1, 0.125, 0.15, 0.175, and 0.2 mM, respectively. Make three repetitions for each concentration and plot the OD405 m value with pNA concentration to obtain the standard curve. • (2) Added a total 190 μL of reaction buffer (20 mM CaCl2, 50 mM Tris-HCl (pH 8.0)) and 8 μL of 4.375 μM elastase into the 96 well plate, followed by preheating at 37° C. for 5 min. Then added 2 μL of different concentrations of substrates (AAApNA, dissolved in DMSO), and mixed by centrifugation at 500 rpm for 1 min. Finally, the plate was incubated at 37° C. for 30 min, and the absorbance value at 405 nm was measured. In the 200 μL of reaction system, the final concentrations of AAApNA were 0, 0.125, 0.166, 0.2, 0.25, 0.33, 0.6, 0.75, and 1.25 mM, respectively. Make three repetitions for each concentration and plot the OD405 nm value with time to obtain the corresponding curve. Divide the slope of the curve by the slope of the standard curve and the enzyme concentration to obtain the initial velocity V0 (mM/(min*mM protein). Plot the initial velocity V0 with the concentration of substrate AAApNA using Prism software, and the Michaelis constant Km value of elastase hydrolyzing AAApNA was obtained.
• (1) Added a total 190 μL of different concentrations of peptides (ECs) against elastase and reaction buffer (20 mM CaCl2, 50 mM Tris-HCl buffer (pH 8.0)) into the pre-cold 96 well plate, followed by preheating at 37° C. for 5 min and centrifugated at 500 rpm for 1 min and allowed to stand for 4 minutes. Then added 8 μL of 12.5 μM elastase and incubated at 37° C. for 10 min and centrifugated at 500 rpm for 1 min and allowed to stand for 9 minutes. Finally, added 2 μL of 100 mM AAApNA, and mixed by centrifugation at 500 rpm for 1 min. The plate was incubated at 37° C. for 60 min, and the absorbance value at 405 nm was measured. Three repetitions were made, and only reaction buffer and substrate were added in the blank control as the minimum absorption value (Min OD405 nm); Only reaction buffer, enzyme and substrate were added in the negative control as the maximum absorption value (Max OD405 nm). • (2) In the 200 μL of reaction system, the final concentrations of elastase and AAApNA were 0.5 μM and 1 mM, respectively. • (3) Data statistics
Residual activity of enzyme (%)=(1−(Max OD405 nm−Sample OD405 nm)/(Max OD405 nm−Min OD405 nm))*100 […]

Compound	Residual activity of elastase (peptide 0.001 μM) [%]	Residual activity of elastase (peptide 0.01 μM) [%]	Residual activity of elastase (peptide 0.1 μM) [%]	Residual activity of elastase (peptide 1 μM) [%]	Residual activity of elastase (peptide 10 μM) [%]	Residual activity of elastase (peptide 100 μM) [%]	Residual activity of elastase (peptide 1000 μM) [%]	IC50 [µM]	further results
CC[C@H](C)[C@H](N)C(=O)N[C@H]1CSSC[C@@H](C(=O)N[C@@H](CCC(N)=O)C(=O)O)NC(=O)[C@H](CCC(N)=O)NC(=O)[C@@H]2CCCN2C(=O)[C@@H]2CCCN2C(=O)[C@H]([C@@H](C)CC)NC(=O)[C@H](CO)NC(=O)[C@H](C)NC(=O)[C@H]([C@@H](C)O)NC1=O [EC19] (H-ICTASIPPQCQ-OH; disulfide 2-10; N-terminus and C-terminus assumed)	99.9 ± 0.5	99.4 ± 0.1	96.1 ± 0.9	52.1 ± 1.8	5.4 ± 0.3	0.2 ± 0.1	0.0 ± 0.0		Residual activity of elastase (peptide 0.5 μM): 81.2 ± 4.1%; Residual activity of elastase (peptide 2 μM): 29.8 ± 0.8%; Residual activity of elastase (peptide 4 μM): 15.5 ± 0.3%; Ki (read-out: Ki): 330 nM
CC[C@H](C)[C@@H]1NC(=O)[C@@H]2CCCN2C(=O)[C@@H]2CCCN2C(=O)[C@H]([C@@H](C)CC)NC(=O)[C@H](CO)NC(=O)[C@H](C)NC(=O)[C@H]([C@@H](C)O)NC(=O)[C@@H](NC(=O)[C@@H](N)Cc2ccc(O)cc2)CSSC[C@@H](C(=O)N[C@@H](CCC(N)=O)C(=O)O)NC1=O [EC29] (H-YCTASIPPICQ-OH; disulfide 2-10; C-terminus assumed)	105.9 ± 2.2	102.0 ± 2.9	92.6 ± 2.7	47.5 ± 0.7	5.9 ± 0.4	0.1 ± 0.1	0.1 ± 0.0		Residual activity of elastase (peptide 0.5 μM): 72.7 ± 4.4%; Residual activity of elastase (peptide 2 μM): 28.5 ± 0.4%; Residual activity of elastase (peptide 6 μM): 8.9 ± 0.4%
CC[C@H](C)[C@@H]1NC(=O)[C@H](CO)NC(=O)[C@H](C)NC(=O)[C@H]([C@@H](C)O)NC(=O)[C@@H](NC(=O)[C@@H](N)CC(C)C)CSSC[C@@H](C(=O)N[C@@H](CCC(N)=O)C(=O)O)NC(=O)[C@H](CCC(N)=O)NC(=O)[C@@H]2CCCN2C(=O)[C@@H]2CCCN2C1=O [EC18] (H-LCTASIPPQCQ-OH; disulfide 2-10; N-terminus and C-terminus assumed)	99.2 ± 2.0	100.6 ± 1.5	97.0 ± 4.0	49.4 ± 3.3	3.6 ± 0.5	0.1 ± 0.0			Residual activity of elastase (peptide 0.2 μM): 100.2 ± 2.0%; Residual activity of elastase (peptide 0.4 μM): 90.3 ± 0.5%; Residual activity of elastase (peptide 0.6 μM): 73.5 ± 4.8%; Residual activity of elastase (peptide 6 μM): 8.4 ± 0.4%
CC[C@H](C)[C@@H]1NC(=O)[C@@H]2CCCN2C(=O)[C@@H](N)CSSC[C@@H](C(=O)N[C@@H](CCC(N)=O)C(=O)O)NC(=O)[C@H]([C@@H](C)CC)NC(=O)[C@@H]2CCCN2C(=O)[C@@H]2CCCN2C(=O)[C@H]([C@@H](C)CC)NC(=O)[C@H](CO)NC(=O)[C@H](C)NC(=O)[C@H]([C@@H](C)O)NC(=O)[C@H](C)NC1=O [EC44] (H-CPIATASIPPICQ-OH; disulfide 1-12)								> 50	
CC[C@H](C)[C@@H]1NC(=O)[C@@H]2CCCN2C(=O)[C@@H]2CCCN2C(=O)[C@H]([C@@H](C)CC)NC(=O)[C@H](CO)NC(=O)[C@H](C)NC(=O)[C@H]([C@@H](C)O)NC(=O)[C@H](C)NC(=O)[C@H](CC(C)C)NC(=O)CNC(=O)[C@@H](N)CSSC[C@@H](C(=O)N[C@@H](CCC(N)=O)C(=O)O)NC1=O [EC6] (H-CGLATASIPPICQ-OH; disulfide 1-12; N-terminus and C-terminus assumed)								> 50	
CC[C@H](C)[C@@H]1NC(=O)[C@@H]2CCCN2C(=O)[C@@H]2CCCN2C(=O)[C@H]([C@@H](C)CC)NC(=O)[C@H](CO)NC(=O)[C@H](C)NC(=O)[C@H]([C@@H](C)O)NC(=O)[C@@H](NC(=O)[C@@H](N)CC(C)C)CSSC[C@@H](C(=O)N[C@@H](CCC(N)=O)C(=O)O)NC1=O [EC12] (H-LCTASIPPICQ-OH; disulfide 2-10; N-terminus and C-terminus assumed)	98.8 ± 1.1	97.8 ± 1.0		12.7 ± 1.0	1.3 ± 0.1	0.2 ± 0.0	0.3 ± 0.0	0.4	inhibitory activity against elastase (in words): better inhibitory activity against Elastase; Residual activity of elastase (peptide 0.06 μM): 98.2 ± 2.1%; Residual activity of elastase (peptide 0.25 μM): 72.2 ± 5.9%; Residual activity of elastase (peptide 0.3 μM): 59.9 ± 3.2%; Residual activity of elastase (peptide 0.75 μM): 25.1 ± 3.6%; Ki (read-out: Ki against elastase): 110 nM
CC[C@H](C)[C@@H]1NC(=O)[C@@H]2CCCN2C(=O)[C@@H]2CCCN2C(=O)[C@H]([C@@H](C)CC)NC(=O)[C@H](CO)NC(=O)[C@H](C)NC(=O)[C@H]([C@@H](C)O)NC(=O)[C@@H](NC(=O)[C@@H](N)C(C)C)CSSC[C@@H](C(=O)N[C@@H](CCC(N)=O)C(=O)O)NC1=O [EC22] (H-VCTASIPPICQ-OH; disulfide 2-10; C-terminus assumed)	100.1 ± 1.0	99.8 ± 0.3	92.0 ± 6.8	20.4 ± 1.2	2.4 ± 0.2	0.0 ± 0.0	−0.2 ± 0.2	0.4	Residual activity of elastase (peptide 0.2 μM): 70.8 ± 4.3%; Residual activity of elastase (peptide 0.4 μM): 51.6 ± 1.7%; Ki (read-out: Ki): 110 nM
CC[C@H](C)[C@@H]1NC(=O)CNC(=O)[C@@H](N)CSSC[C@@H](C(=O)N[C@@H](CCC(N)=O)C(=O)O)NC(=O)[C@H]([C@@H](C)CC)NC(=O)[C@@H]2CCCN2C(=O)[C@@H]2CCCN2C(=O)[C@H]([C@@H](C)CC)NC(=O)[C@H](CO)NC(=O)[C@H](C)NC(=O)[C@H]([C@@H](C)O)NC(=O)[C@H](CCC(N)=O)NC1=O [EC39] (H-CGIQTASIPPICQ-OH; disulfide 1-12)								> 50	
CC[C@H](C)[C@@H]1NC(=O)[C@@H]2C[C@@H](O)CN2C(=O)[C@@H](N)CSSC[C@@H](C(=O)N[C@@H](CCC(N)=O)C(=O)O)NC(=O)[C@H]([C@@H](C)CC)NC(=O)[C@@H]2CCCN2C(=O)[C@@H]2CCCN2C(=O)[C@H]([C@@H](C)CC)NC(=O)[C@H](CO)NC(=O)[C@H](C)NC(=O)[C@H]([C@@H](C)O)NC(=O)[C@H](C)NC1=O [EC46] (H-C[Hyp]IATASIPPICQ-OH; disulfide 1-12)								> 50	
